Key:
Experiment in all cases: Kinase selectivity, scanMAX Kinase assay panel (DiscoverX), % control at 1 uM
Assay type in all cases: binding
[1] = target: T1, scanMAX Kinase assay panel (Homo sapiens, UniProt P07949); conditions: RET; 1 uM; read-out: Percent Control (%)
T1 construct: purchased DiscoverX
In short: (§1)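 Each kinase was first exposed to the test compound at 1 uM in DMSO. Signal was then normalised to positive and negative controls to give % control. Finally, any enzyme showing <35% control was judged inhibited.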

[2] = target: T2, scanMAX Kinase assay panel (Homo sapiens, UniProt Q96L34); conditions: MARK4; 1 uM; read-out: Percent Control (%)
T2 construct: purchased DiscoverX
T2 sequence (Q96L34 1-752): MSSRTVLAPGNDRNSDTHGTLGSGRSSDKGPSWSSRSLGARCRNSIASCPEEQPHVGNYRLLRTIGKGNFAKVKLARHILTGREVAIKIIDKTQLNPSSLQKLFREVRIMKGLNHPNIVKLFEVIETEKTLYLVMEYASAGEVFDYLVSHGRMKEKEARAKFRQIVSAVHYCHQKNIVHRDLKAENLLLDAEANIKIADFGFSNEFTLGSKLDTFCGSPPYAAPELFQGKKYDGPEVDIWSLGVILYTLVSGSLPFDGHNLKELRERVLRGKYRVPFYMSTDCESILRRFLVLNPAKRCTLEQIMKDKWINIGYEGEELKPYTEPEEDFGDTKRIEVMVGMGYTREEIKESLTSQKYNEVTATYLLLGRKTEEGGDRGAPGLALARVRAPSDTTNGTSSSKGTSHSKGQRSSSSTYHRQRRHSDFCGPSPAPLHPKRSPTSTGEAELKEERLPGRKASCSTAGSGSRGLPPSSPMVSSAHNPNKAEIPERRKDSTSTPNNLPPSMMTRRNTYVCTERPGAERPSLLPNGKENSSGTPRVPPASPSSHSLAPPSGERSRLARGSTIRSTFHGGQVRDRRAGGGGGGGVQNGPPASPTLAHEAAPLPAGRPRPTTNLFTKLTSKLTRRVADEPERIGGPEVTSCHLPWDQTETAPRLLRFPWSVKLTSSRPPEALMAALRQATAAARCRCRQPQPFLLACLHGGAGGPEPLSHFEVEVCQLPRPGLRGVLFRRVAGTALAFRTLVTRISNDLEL
In short: as §1

[3] = target: T3, scanMAX Kinase assay panel (Homo sapiens, UniProt Q96D53); conditions: ADCK4; 1 uM; read-out: Percent Control (%)
T3 construct: purchased DiscoverX
T3 sequence (Q96D53 1-544): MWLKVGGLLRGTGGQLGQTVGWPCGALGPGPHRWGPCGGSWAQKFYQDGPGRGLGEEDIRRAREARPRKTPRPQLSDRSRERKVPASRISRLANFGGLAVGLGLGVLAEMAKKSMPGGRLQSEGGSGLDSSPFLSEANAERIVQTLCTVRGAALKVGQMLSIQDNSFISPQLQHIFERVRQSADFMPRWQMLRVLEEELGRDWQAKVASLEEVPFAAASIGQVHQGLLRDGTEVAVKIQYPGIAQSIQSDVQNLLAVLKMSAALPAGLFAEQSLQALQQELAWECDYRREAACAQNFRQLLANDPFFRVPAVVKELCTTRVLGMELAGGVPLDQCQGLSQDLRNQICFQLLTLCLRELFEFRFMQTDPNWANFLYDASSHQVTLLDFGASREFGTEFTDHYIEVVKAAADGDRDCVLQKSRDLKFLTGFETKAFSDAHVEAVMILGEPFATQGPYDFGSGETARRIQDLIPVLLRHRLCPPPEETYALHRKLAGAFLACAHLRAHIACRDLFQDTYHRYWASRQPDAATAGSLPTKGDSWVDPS
In short: as §1

[4] = target: T4, scanMAX Kinase assay panel (Homo sapiens, UniProt O94806); conditions: PRKD3; 1 uM; read-out: Percent Control (%)
T4 construct: purchased DiscoverX
T4 sequence (O94806 1-890): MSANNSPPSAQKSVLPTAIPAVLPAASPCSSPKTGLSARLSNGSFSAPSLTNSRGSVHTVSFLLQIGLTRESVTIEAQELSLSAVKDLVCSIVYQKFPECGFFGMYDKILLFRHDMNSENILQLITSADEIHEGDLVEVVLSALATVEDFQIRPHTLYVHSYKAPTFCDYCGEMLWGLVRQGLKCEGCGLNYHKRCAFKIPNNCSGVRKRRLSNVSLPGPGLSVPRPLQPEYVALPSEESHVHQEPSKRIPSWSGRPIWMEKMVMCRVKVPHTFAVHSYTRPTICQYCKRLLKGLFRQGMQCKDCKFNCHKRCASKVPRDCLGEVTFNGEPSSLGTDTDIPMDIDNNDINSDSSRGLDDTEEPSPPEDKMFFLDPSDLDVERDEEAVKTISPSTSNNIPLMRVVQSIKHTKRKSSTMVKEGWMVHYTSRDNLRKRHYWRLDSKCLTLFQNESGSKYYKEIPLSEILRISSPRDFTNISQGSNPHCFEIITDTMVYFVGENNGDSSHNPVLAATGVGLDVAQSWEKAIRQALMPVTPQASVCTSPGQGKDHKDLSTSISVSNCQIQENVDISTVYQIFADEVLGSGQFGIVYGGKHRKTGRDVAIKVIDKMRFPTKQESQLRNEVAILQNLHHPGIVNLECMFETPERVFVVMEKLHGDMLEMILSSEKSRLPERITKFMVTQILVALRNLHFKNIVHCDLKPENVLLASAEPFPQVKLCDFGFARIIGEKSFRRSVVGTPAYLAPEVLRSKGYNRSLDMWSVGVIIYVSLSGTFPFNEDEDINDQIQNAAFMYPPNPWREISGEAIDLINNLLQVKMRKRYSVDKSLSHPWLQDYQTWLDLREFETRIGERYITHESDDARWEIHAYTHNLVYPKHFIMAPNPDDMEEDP
In short: as §1

T1 sequence (P07949 29-1114): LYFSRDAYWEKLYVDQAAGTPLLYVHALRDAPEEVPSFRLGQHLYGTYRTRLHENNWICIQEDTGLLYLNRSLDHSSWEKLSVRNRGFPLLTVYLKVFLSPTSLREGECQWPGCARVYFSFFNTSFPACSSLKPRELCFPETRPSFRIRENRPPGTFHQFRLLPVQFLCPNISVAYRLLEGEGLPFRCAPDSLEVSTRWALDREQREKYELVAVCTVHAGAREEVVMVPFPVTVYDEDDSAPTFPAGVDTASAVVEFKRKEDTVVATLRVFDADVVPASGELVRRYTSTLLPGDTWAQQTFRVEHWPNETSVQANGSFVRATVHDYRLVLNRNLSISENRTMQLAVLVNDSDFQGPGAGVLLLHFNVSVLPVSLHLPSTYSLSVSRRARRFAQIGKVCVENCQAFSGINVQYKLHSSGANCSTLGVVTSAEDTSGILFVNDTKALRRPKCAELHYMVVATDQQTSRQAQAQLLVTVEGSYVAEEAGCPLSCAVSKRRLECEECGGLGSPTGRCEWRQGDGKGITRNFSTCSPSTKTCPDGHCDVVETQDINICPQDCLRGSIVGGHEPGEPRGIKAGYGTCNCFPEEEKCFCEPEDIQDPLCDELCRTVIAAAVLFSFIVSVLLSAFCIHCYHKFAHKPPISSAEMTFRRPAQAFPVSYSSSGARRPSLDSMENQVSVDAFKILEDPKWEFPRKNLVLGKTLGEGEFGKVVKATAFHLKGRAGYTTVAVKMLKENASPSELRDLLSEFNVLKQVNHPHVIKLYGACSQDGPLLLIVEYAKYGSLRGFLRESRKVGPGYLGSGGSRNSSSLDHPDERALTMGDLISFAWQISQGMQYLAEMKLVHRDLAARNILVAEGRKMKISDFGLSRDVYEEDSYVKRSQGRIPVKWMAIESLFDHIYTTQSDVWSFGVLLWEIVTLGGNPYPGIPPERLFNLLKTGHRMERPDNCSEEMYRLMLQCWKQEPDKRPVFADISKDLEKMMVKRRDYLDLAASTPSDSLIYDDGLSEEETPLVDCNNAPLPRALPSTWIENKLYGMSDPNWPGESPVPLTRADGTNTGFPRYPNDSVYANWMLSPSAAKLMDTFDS

Structure (SMILES) | remaining binding at 1 µM [1] | remaining binding at 1 µM [2] | remaining binding at 1 µM [3] | remaining binding at 1 µM [4]
Cc1ccc(C(=O)Nc2ccc(CN3CCN(C)CC3)c(C(F)(F)F)c2)cc1C#Cc1cnc2c(Nc3cnn(C)c3)cccn12 [Example 1, 4-methyl-3-((8-((1-methyl-1H-pyrazol-4-yl)amino)imidazo[1,2-a]pyridin-3-yl)ethynyl)-N-(4-((4-methylpiperazin-1-yl)methyl)-3-(trifluoromethyl)phenyl)benzamide] | 0% | 100% | 88% | 43%
Cc1cn(-c2cc(NC(=O)c3ccc(C)c(C#Cc4cnc5c(Nc6cnn(C)c6)cccn45)c3)cc(C(F)(F)F)c2)cn1 [Example 12, 4-methyl-N-(3-(4-methyl-1H-imidazol-1-yl)-5-(trifluoromethyl)phenyl)-3-((8-((1-methyl-1H-pyrazol-4-yl)amino)imidazo[1,2-a]pyridin-3-yl)ethynyl)benzamide] | 1% | 86% | 95% | 96%
Cc1ccc(NC(=O)C2(C(=O)Nc3ccc(F)cc3)CC2)cc1C#Cc1cnc2c(Nc3cnn(C(C)C)c3)cccn12 [Example 78] | 97% | 97% | 100% | 88%
